Here are results for 25 molecules from patent EP0807626A1, “N-HYDROXYUREA DERIVATIVES” (Nikken Chemicals Company, Limited, priority 1995, dated 1996).

The target in one assay is T1, lipoxygenase (Rattus norvegicus, UniProt P12527).
T1 construct: the peritoneal cavities were lavaged and the polymorphonuclear leukocytes were recovered; endogenous in cells; host or cells: casein-elicited peritoneal polymorphonuclear leukocytes of Wistar male rats
T1 sequence (P12527 1-673): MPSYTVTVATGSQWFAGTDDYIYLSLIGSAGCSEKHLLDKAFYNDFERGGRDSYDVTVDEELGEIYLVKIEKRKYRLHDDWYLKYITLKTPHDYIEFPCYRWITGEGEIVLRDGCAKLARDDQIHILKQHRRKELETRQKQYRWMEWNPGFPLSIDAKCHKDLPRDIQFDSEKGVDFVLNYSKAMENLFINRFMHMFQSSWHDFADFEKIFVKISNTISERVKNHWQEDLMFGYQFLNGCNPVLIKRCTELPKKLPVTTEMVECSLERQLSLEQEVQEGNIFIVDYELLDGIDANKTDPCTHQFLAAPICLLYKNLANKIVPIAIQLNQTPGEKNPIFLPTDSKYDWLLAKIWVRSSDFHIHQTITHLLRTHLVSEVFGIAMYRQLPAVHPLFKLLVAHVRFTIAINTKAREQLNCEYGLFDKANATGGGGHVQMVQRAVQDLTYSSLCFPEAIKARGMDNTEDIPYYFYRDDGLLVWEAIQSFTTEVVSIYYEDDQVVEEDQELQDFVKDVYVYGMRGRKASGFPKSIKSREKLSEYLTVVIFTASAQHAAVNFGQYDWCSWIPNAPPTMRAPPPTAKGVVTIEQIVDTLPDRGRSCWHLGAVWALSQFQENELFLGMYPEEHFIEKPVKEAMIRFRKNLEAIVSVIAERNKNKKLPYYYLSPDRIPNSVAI
Put plainly: Test of lipoxygenase inhibitory action (production of leukotriene B4 in rat polymorphonuclear leukocytes). The following applies: inhibiting the production of leukotriene B4, calcium ionophore A-23187, EIA, read-out: LTBI IC50. It counts as cell-based. The method, then: Using rat polymorphonuclear leukocytes, a test of the lipoxygenase inhibitory activity of the test compounds was determined the amount of production of leukotriene B4.
Wistar male rats (Japan Clea) were intraperitoneally administered with 12% sodium casein. After 16 hours, the peritoneal cavities were lavaged and the polymorphonuclear leukocytes were recovered. The obtained polymorphonuclear leukocytes were suspended in a phosphate buffer (137 mM NaCl, 3 mM KCl, 8 mM Na2HPO4, 2 mM KH2PO4) (2.5 × 10^5 cells/0.4 ml), then the incubation was carried out at 37°C for 10 minutes the test compound (final concentration 10^-5M) was added and then for 5 minutes after a calcium solution (10 mM CaCl2, 0.86% NaCl) 0.1 ml was added, then 1.25 µl of calcium ionophore (20 µM, A-23187) was added and the reaction started. Five minutes after the addition, 250 µl of methanol was added to stop the reaction. After the reaction was stopped, the resultant mixture was centrifuged for 20 minutes (4°C, 3000 rpm), then the amount of leukotriene B4 in the supernatant was measured by the EIA method (Cayman Co. kit).
As the test compound, the above mentioned Compound 1 to Compound 4, Compound 9 to Compound 11, Compound 22 to Compound 26, Compound 28, Compound 29, compound 32, Compound 33, and Compound 40 to Compound 48 were used.

A further assay deals with T2, thromboxane synthase (Homo sapiens, UniProt P24557).
T2 construct: containing human platelet microsomes (50 µg protein/ml) and the test compound; from tissue; host or cells: human platelet microsomes
T2 sequence (P24557 1-533): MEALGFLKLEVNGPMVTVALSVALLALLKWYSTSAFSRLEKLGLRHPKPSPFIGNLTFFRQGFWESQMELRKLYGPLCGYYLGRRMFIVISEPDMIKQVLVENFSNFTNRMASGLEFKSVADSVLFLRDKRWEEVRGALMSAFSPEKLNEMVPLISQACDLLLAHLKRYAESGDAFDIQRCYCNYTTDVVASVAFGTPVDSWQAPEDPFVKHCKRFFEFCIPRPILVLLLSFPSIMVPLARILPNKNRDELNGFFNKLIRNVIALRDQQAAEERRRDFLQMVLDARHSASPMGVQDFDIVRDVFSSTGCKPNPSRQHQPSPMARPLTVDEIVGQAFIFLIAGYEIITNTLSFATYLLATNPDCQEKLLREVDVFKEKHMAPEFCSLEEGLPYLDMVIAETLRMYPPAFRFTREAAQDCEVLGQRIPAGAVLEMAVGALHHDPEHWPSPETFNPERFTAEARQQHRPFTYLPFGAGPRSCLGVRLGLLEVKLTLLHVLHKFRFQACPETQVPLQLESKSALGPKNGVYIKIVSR
As to the kind of experiment: Test of thromboxane synthase inhibitory action (production of thromboxane B2 in human platelet microsomes). It counts as biochemical. The following applies: suppressing production of thromboxane (thromboxane B2), prostaglandin H2, EIA, read-out: TxSI IC50. The procedure: Human platelet microsomes were used and a test of the thromboxane synthase inhibitory activity of the compounds was determined by the amount of production of thromboxane B2 as the thromboxane A2 stable metabdite.
[…] A reaction was initiated to added prostaglandin H2 (100 ng/2 µl), and terminated with 1N hydrocloric acid. Then neutralized by 1M Tris-base, and centrifuged at 3000 rpm for 20 minutes. The content of the thromboxane B2 in the supernatent was measured by the EIA method (Cayman Co. kit).
As the test compound, the same compounds as in Test Example 1 were used.

In general, IC50 refers to the concentration that gives 50% inhibition. In the case of `CC(/C=C/CCCC(c1ccccc1)c1cccnc1)N(O)C(N)=O` (centres unmarked) [Compound 41, N-hydroxy-N-[(E)-1-methyl-7-phenyl-7-(3-pyridyl)-2-hepten-1-yl]urea], the half-maximal inhibitory concentration (IC50) on lipoxygenase was found to be 200 nM; on thromboxane synthase, 5 nM.
For the molecule `O=C(NC1CCCCC1)N(O)CCCCC/C=C(/c1ccccc1)c1cccnc1` [Compound 3, N'-cyclohexyl-N-hydroxy-N-[(Z)-7-phenyl-7-(3-pyridyl)-6-hepten-1-yl]urea], the values for the concentration for half-maximal inhibition (IC50) at lipoxygenase and at thromboxane synthase were 50 nM and 9 nM, respectively.
In the case of `NC(=O)N(O)CCCCC/C=C(/c1ccccc1)c1cccnc1` [Compound 2, N-hydroxy-N-[(Z)-7-phenyl-7-(3-pyridyl)-6-hepten-1-yl]urea], the half-maximal inhibitory concentration (IC50) worked out at 60 nM at lipoxygenase and 20 nM at thromboxane synthase.
Take `COc1cccc(NC(=O)N(O)CCCCCCC(c2ccccc2)c2cccnc2)c1` (centres unmarked) [Compound 26, N-hydroxy-N'-(3-methoxyphenyl)-N-[7-phenyl-7-(3-pyridyl)heptyl]urea]: the values for the IC50 on lipoxygenase and on thromboxane synthase were 40 nM and 2 nM, respectively.
For `CC(CCCCCCCC(c1ccccc1)c1cccnc1)N(O)C(=S)NC1CCCCC1` (centres unmarked) [Compound 32, N'-cyclohexyl-N-hydroxy-N-[1-methyl-9-phenyl-9-(3-pyridyl)nonyl]thiourea], in that order: 100 nM and 9 nM.
Consider `O=C(NC1CCCCC1)N(O)CCCCCCC(c1ccccc1)c1cccnc1` (centres unmarked) [Compound 25, N'-cyclohexyl-N-hydroxy-N-[7-phenyl-7-(3-pyridyl)heptyl]urea], for which the IC50 on lipoxygenase is 60 nM; on thromboxane synthase, 5 nM.
Turning to `NC(=O)N(O)Cc1cccc(CC(c2ccccc2)c2cccnc2)c1` (stereo not drawn) [Compound 47, N-hydroxy-N-[3-[β-(3-pyridyl)phenethyl]benzyl]urea], the IC50 on lipoxygenase was determined as 300 nM; on thromboxane synthase, 20 nM.
As to `NC(=O)N(O)CCCCC/C=C(\c1ccccc1)c1cccnc1` [Compound 1, N-hydroxy-N-[(E)-7-phenyl-7-(3-pyridyl)-6-hepten-1-yl]urea], the concentration for half-maximal inhibition (IC50) at lipoxygenase came out at 400 nM; on thromboxane synthase, 0.9 nM.
Regarding `CC(c1cccc(CC(c2ccccc2)c2cccnc2)c1)N(O)C(N)=O` (stereo not drawn) [Compound 48, N-hydroxy-N-[3-[β-(3-pyridyl)phenethyl]-α-methylbenzyl]urea], the IC50 was determined as 800 nM on lipoxygenase and 30 nM on thromboxane synthase.
For the molecule `NC(=O)N(O)CCCCCCC(c1ccccc1)c1cccnc1` (centres unmarked) [Compound 24, N-hydroxy-N-[7-phenyl-7-(3-pyridyl)heptyl]urea], the IC50 at lipoxygenase amounted to 80 nM; on thromboxane synthase, 10 nM.
Consider `NC(=O)N(O)CCC=C(c1cccnc1)c1cccc(C(F)(F)F)c1` [Compound 4, N-hydroxy-N-[4-(3-pyridyl)-4-(3-trifluoromethylphenyl)-3-buten-1-yl] urea], for which the 50% inhibitory concentration (IC50) came to 2000 nM on lipoxygenase and 6 nM on thromboxane synthase.
For `O=C(NC1CCCCC1)N(O)Cc1cccc(OC(c2ccccc2)c2cccnc2)c1` (stereo not drawn) [Compound 44, N'-cyclohexyl-N-hydroxy-N-[3-[α-(3-pyridyl)benzyloxy]benzyl]urea], in that order: 200 nM and 5 nM.
For the molecule `NC(=O)N(O)C/C=C/CCCC(c1ccccc1)c1cccnc1` (centres unmarked) [Compound 40, N-hydroxy-N-[(E)-7-phenyl-7-(3-pyridyl)-2-hepten-1-yl]urea], the half-maximal inhibitory concentration (IC50) at lipoxygenase came to 200 nM; at thromboxane synthase, 30 nM.
For `O=C(NC1CCCCC1)N(O)CCCC(c1ccccc1)c1cccnc1` (centres unmarked) [Compound 9, N'-cyclohexyl-N-hydroxy-N-[4-phenyl-4-(3-pyridyl)butyl]urea], the IC50 is 1000 nM on lipoxygenase and 0.3 nM on thromboxane synthase.
With `ON(CCCC(c1ccccc1)c1cccnc1)C(=S)NC1CCCCC1` (centres unmarked) [Compound 10, N'-cyclohexyl-N-hydroxy-N-[4-phenyl-4-(3-pyridyl)butyl]thiourea], the results for the concentration for half-maximal inhibition (IC50) at lipoxygenase and at thromboxane synthase were 300 nM and 0.9 nM, respectively.
`NC(=O)N(O)CCCCCCCCCC(c1ccccc1)c1cccnc1` (centres unmarked) [Compound 33, N-hydroxy-N-[10-phenyl-10-(3-pyridyl)decyl]urea]: the IC50 at lipoxygenase and on thromboxane synthase was 10 nM throughout.
`CCNC(=O)N(O)CCCCCC(c1ccccc1)c1cccnc1` (centres unmarked) [Compound 23, N'-ethyl-N-hydroxy-N-[6-phenyl-6-(3-pyridyl)hexyl]urea]: the IC50 came to 200 nM on lipoxygenase and 6 nM on thromboxane synthase.
As for `COc1cccc(NC(=O)N(O)Cc2cccc(OC(c3ccccc3)c3cccnc3)c2)c1` (stereo not drawn) [Compound 45, N-hydroxy-N'-(3-methoxyphenyl)-N-[3-[α-(3-pyridyl)benzyloxy]benzyl] urea], the half-maximal inhibitory concentration (IC50) at lipoxygenase is 90 nM; on thromboxane synthase, 6 nM.
Take `CC(CCCCCC(c1ccccc1)c1cccnc1)N(O)C(N)=O` (centres unmarked) [Compound 28, N-hydroxy-N-[1-methyl-7-phenyl-7-(3-pyridyl)heptyl]urea]: the figures for the IC50 on lipoxygenase and on thromboxane synthase were 100 nM and 7 nM, respectively.
For `ON(CCCCCCCC(c1ccccc1)c1cccnc1)C(=S)Nc1ccccc1` (centres unmarked) [Compound 29, N-hydroxy-N'-phenyl-N-[8-phenyl-8-(3-pyridyl)octyl]thiourea], the IC50 came to 40 nM at lipoxygenase and 2 nM at thromboxane synthase.
In the same order, the values of `NC(=O)N(O)Cc1ccc(OC(c2ccccc2)c2cccnc2)cc1` (stereo not drawn) [Compound 43, N-hydroxy-N-[4-[α-(3-pyridyl)benzyloxy]benzyl]urea] are 500 nM and 50 nM.
In the same order, the values of `NC(=S)N(O)CCCCCC(c1ccccc1)c1cccnc1` (centres unmarked) [Compound 22, N-hydroxy-N-[6-phenyl-6-(3-pyridyl)hexyl]thiourea] are 200 nM and 4 nM.
In the same order, the values of `NC(=O)N(O)Cc1cccc(OC(c2ccccc2)c2cccnc2)c1` (stereo not drawn) [Compound 42, N-hydroxy-N-[3-[α-(3-pyridyl)benzyloxy]benzyl]urea] are 300 nM and 60 nM.
`CC(c1cccc(OC(c2ccccc2)c2cccnc2)c1)N(O)C(N)=O` (stereo not drawn) [Compound 46, N-hydroxy-N-[3-[α-(3-pyridyl)benzyloxy]-α-methylbenzyl]urea]: the IC50 on lipoxygenase was found to be 1000 nM; on thromboxane synthase, 9 nM.
With `COc1cccc(NC(=O)N(O)CCCC(c2ccccc2)c2cccnc2)c1` (centres unmarked) [Compound 11, N-hydroxy-N'-(3-methoxyphenyl)-N-[4-phenyl-4-(3-pyridyl)butyl]urea], the IC50 at lipoxygenase came out at 500 nM; on thromboxane synthase, 2 nM.
